Data from the NIST ThermoML archive (doi:10.1021/je900212d).
± gives the expanded uncertainty stated by the source.

Columns and labels:
[1] = 101.33 kPa, Liquid
[2] = xn = mol fraction of the nth substance listed; conditions: 101 kPa, Liquid

Compound: ClCCCl [1,2-dichloroethane]
- mass density ([1]; 288.15 K): 1259 ± 8.9 kg/m3
- viscosity ([1]; 288.15 K): 0.87 ± 0.012 mPa·s
- mass density ([1]; 293.15 K): 1251.9 ± 8.7 kg/m3
- viscosity ([1]; 293.15 K): 0.8112 ± 0.012 mPa·s
- mass density ([1]; 298.15 K): 1247.4 ± 8.6 kg/m3
- viscosity ([1]; 298.15 K): 0.7597 ± 0.011 mPa·s
- mass density ([1]; 303.15 K): 1239 ± 8.4 kg/m3
- viscosity ([1]; 303.15 K): 0.7112 ± 0.011 mPa·s
- mass density ([1]; 308.15 K): 1231.2 ± 8.2 kg/m3
- viscosity ([1]; 308.15 K): 0.6747 ± 0.011 mPa·s
- mass density ([1]; 313.15 K): 1222 ± 8 kg/m3
- viscosity ([1]; 313.15 K): 0.6269 ± 0.01 mPa·s

Compound: O=Cc1ccccc1 [benzaldehyde] + CCCO
- mass density ([2]; 288.15 K, x2 = 0.099): 1038.8 ± 6.7 kg/m3
- viscosity ([2]; 288.15 K, x2 = 0.099): 1.689 ± 0.025 mPa·s
- mass density ([2]; 288.15 K, x2 = 0.193): 1021.8 ± 5.7 kg/m3
- viscosity ([2]; 288.15 K, x2 = 0.193): 1.661 ± 0.025 mPa·s
- mass density ([2]; 288.15 K, x2 = 0.3112): 997.7 ± 4.7 kg/m3
- viscosity ([2]; 288.15 K, x2 = 0.3112): 1.622 ± 0.023 mPa·s
- mass density ([2]; 288.15 K, x2 = 0.3949): 980.8 ± 5.4 kg/m3
- viscosity ([2]; 288.15 K, x2 = 0.3949): 1.637 ± 0.023 mPa·s
- mass density ([2]; 288.15 K, x2 = 0.5004): 956.4 ± 6.6 kg/m3
- viscosity ([2]; 288.15 K, x2 = 0.5004): 1.645 ± 0.023 mPa·s
- mass density ([2]; 288.15 K, x2 = 0.5997): 932.9 ± 7.7 kg/m3
- viscosity ([2]; 288.15 K, x2 = 0.5997): 1.683 ± 0.023 mPa·s
- viscosity ([2]; 288.15 K, x2 = 0.6932): 1.774 ± 0.024 mPa·s
- mass density ([2]; 288.15 K, x2 = 0.8026): 875.4 ± 10 kg/m3
- viscosity ([2]; 288.15 K, x2 = 0.8026): 1.873 ± 0.024 mPa·s
- mass density ([2]; 288.15 K, x2 = 0.9046): 843.1 ± 12 kg/m3
- viscosity ([2]; 288.15 K, x2 = 0.9046): 2.075 ± 0.026 mPa·s
- mass density ([2]; 293.15 K, x2 = 0.0988): 1034.2 ± 6.5 kg/m3
- viscosity ([2]; 293.15 K, x2 = 0.0988): 1.536 ± 0.023 mPa·s
- mass density ([2]; 293.15 K, x2 = 0.1927): 1017 ± 5.5 kg/m3
- viscosity ([2]; 293.15 K, x2 = 0.1927): 1.505 ± 0.022 mPa·s
- mass density ([2]; 293.15 K, x2 = 0.3108): 993.2 ± 4.9 kg/m3
- viscosity ([2]; 293.15 K, x2 = 0.3108): 1.468 ± 0.021 mPa·s
- mass density ([2]; 293.15 K, x2 = 0.3944): 976.2 ± 5.7 kg/m3
- viscosity ([2]; 293.15 K, x2 = 0.3944): 1.475 ± 0.021 mPa·s
- mass density ([2]; 293.15 K, x2 = 0.5): 951.6 ± 6.8 kg/m3
- viscosity ([2]; 293.15 K, x2 = 0.5): 1.483 ± 0.021 mPa·s
- mass density ([2]; 293.15 K, x2 = 0.5992): 928.6 ± 7.9 kg/m3
- viscosity ([2]; 293.15 K, x2 = 0.5992): 1.501 ± 0.021 mPa·s
- viscosity ([2]; 293.15 K, x2 = 0.6927): 1.588 ± 0.021 mPa·s
- mass density ([2]; 293.15 K, x2 = 0.8023): 871.4 ± 11 kg/m3
- viscosity ([2]; 293.15 K, x2 = 0.8023): 1.669 ± 0.022 mPa·s
- mass density ([2]; 293.15 K, x2 = 0.9045): 839.1 ± 12 kg/m3
- viscosity ([2]; 293.15 K, x2 = 0.9045): 1.84 ± 0.024 mPa·s
- mass density ([2]; 298.15 K, x2 = 0.099): 1029.9 ± 6.2 kg/m3
- viscosity ([2]; 298.15 K, x2 = 0.099): 1.405 ± 0.021 mPa·s
- mass density ([2]; 298.15 K, x2 = 0.1929): 1012.8 ± 5.3 kg/m3
- viscosity ([2]; 298.15 K, x2 = 0.1929): 1.373 ± 0.021 mPa·s
- mass density ([2]; 298.15 K, x2 = 0.3111): 989.2 ± 5.1 kg/m3
- viscosity ([2]; 298.15 K, x2 = 0.3111): 1.337 ± 0.019 mPa·s
- mass density ([2]; 298.15 K, x2 = 0.3948): 971.3 ± 5.9 kg/m3
- viscosity ([2]; 298.15 K, x2 = 0.3948): 1.333 ± 0.019 mPa·s
- mass density ([2]; 298.15 K, x2 = 0.5003): 947 ± 7 kg/m3
- viscosity ([2]; 298.15 K, x2 = 0.5003): 1.342 ± 0.019 mPa·s
- mass density ([2]; 298.15 K, x2 = 0.5996): 923.7 ± 8.1 kg/m3
- viscosity ([2]; 298.15 K, x2 = 0.5996): 1.363 ± 0.019 mPa·s
- viscosity ([2]; 298.15 K, x2 = 0.693): 1.423 ± 0.019 mPa·s
- mass density ([2]; 298.15 K, x2 = 0.8025): 867.6 ± 11 kg/m3
- viscosity ([2]; 298.15 K, x2 = 0.8025): 1.491 ± 0.02 mPa·s
- mass density ([2]; 298.15 K, x2 = 0.9046): 835.3 ± 12 kg/m3
- viscosity ([2]; 298.15 K, x2 = 0.9046): 1.64 ± 0.021 mPa·s
- mass density ([2]; 303.15 K, x2 = 0.0989): 1025.9 ± 6 kg/m3
- viscosity ([2]; 303.15 K, x2 = 0.0989): 1.292 ± 0.02 mPa·s
- mass density ([2]; 303.15 K, x2 = 0.1927): 1008.1 ± 5 kg/m3
- viscosity ([2]; 303.15 K, x2 = 0.1927): 1.258 ± 0.019 mPa·s
- mass density ([2]; 303.15 K, x2 = 0.3108): 984.8 ± 5.3 kg/m3
- viscosity ([2]; 303.15 K, x2 = 0.3108): 1.224 ± 0.018 mPa·s
- mass density ([2]; 303.15 K, x2 = 0.3945): 967 ± 6.1 kg/m3
- viscosity ([2]; 303.15 K, x2 = 0.3945): 1.216 ± 0.018 mPa·s
- mass density ([2]; 303.15 K, x2 = 0.5): 942.9 ± 7.2 kg/m3
- viscosity ([2]; 303.15 K, x2 = 0.5): 1.223 ± 0.017 mPa·s
- mass density ([2]; 303.15 K, x2 = 0.5993): 919.5 ± 8.3 kg/m3
- viscosity ([2]; 303.15 K, x2 = 0.5993): 1.237 ± 0.017 mPa·s
- viscosity ([2]; 303.15 K, x2 = 0.6928): 1.287 ± 0.018 mPa·s
- mass density ([2]; 303.15 K, x2 = 0.8023): 863.6 ± 11 kg/m3
- viscosity ([2]; 303.15 K, x2 = 0.8023): 1.342 ± 0.018 mPa·s
- mass density ([2]; 303.15 K, x2 = 0.9045): 831.6 ± 13 kg/m3
- viscosity ([2]; 303.15 K, x2 = 0.9045): 1.491 ± 0.019 mPa·s
- mass density ([2]; 308.15 K, x2 = 0.0988): 1021.4 ± 5.8 kg/m3
- viscosity ([2]; 308.15 K, x2 = 0.0988): 1.193 ± 0.018 mPa·s
- mass density ([2]; 308.15 K, x2 = 0.1926): 1003.4 ± 4.8 kg/m3
- viscosity ([2]; 308.15 K, x2 = 0.1926): 1.158 ± 0.018 mPa·s
- mass density ([2]; 308.15 K, x2 = 0.3106): 980.1 ± 5.5 kg/m3
- viscosity ([2]; 308.15 K, x2 = 0.3106): 1.126 ± 0.017 mPa·s
- mass density ([2]; 308.15 K, x2 = 0.3942): 962.7 ± 6.3 kg/m3
- viscosity ([2]; 308.15 K, x2 = 0.3942): 1.12 ± 0.017 mPa·s
- mass density ([2]; 308.15 K, x2 = 0.4997): 937.8 ± 7.5 kg/m3
- viscosity ([2]; 308.15 K, x2 = 0.4997): 1.117 ± 0.016 mPa·s
- mass density ([2]; 308.15 K, x2 = 0.599): 915.5 ± 8.5 kg/m3
- viscosity ([2]; 308.15 K, x2 = 0.599): 1.128 ± 0.016 mPa·s
- viscosity ([2]; 308.15 K, x2 = 0.6925): 1.169 ± 0.016 mPa·s
- mass density ([2]; 308.15 K, x2 = 0.8022): 858.9 ± 11 kg/m3
- viscosity ([2]; 308.15 K, x2 = 0.8022): 1.215 ± 0.016 mPa·s
- mass density ([2]; 308.15 K, x2 = 0.9044): 827.3 ± 13 kg/m3
- viscosity ([2]; 308.15 K, x2 = 0.9044): 1.317 ± 0.017 mPa·s
- mass density ([2]; 313.15 K, x2 = 0.0986): 1015.1 ± 5.5 kg/m3
- viscosity ([2]; 313.15 K, x2 = 0.0986): 1.104 ± 0.017 mPa·s
- mass density ([2]; 313.15 K, x2 = 0.1923): 997.8 ± 4.7 kg/m3
- viscosity ([2]; 313.15 K, x2 = 0.1923): 1.069 ± 0.017 mPa·s
- mass density ([2]; 313.15 K, x2 = 0.3102): 973.8 ± 5.8 kg/m3
- viscosity ([2]; 313.15 K, x2 = 0.3102): 1.039 ± 0.016 mPa·s
- mass density ([2]; 313.15 K, x2 = 0.3938): 956.5 ± 6.6 kg/m3
- viscosity ([2]; 313.15 K, x2 = 0.3938): 1.024 ± 0.015 mPa·s
- mass density ([2]; 313.15 K, x2 = 0.4993): 934 ± 7.7 kg/m3
- viscosity ([2]; 313.15 K, x2 = 0.4993): 1.026 ± 0.015 mPa·s
- mass density ([2]; 313.15 K, x2 = 0.5986): 910.9 ± 8.8 kg/m3
- viscosity ([2]; 313.15 K, x2 = 0.5986): 1.033 ± 0.015 mPa·s
- mass density ([2]; 313.15 K, x2 = 0.6922): 894.8 ± 9.5 kg/m3
- viscosity ([2]; 313.15 K, x2 = 0.6922): 1.063 ± 0.015 mPa·s
- mass density ([2]; 313.15 K, x2 = 0.8019): 853.6 ± 12 kg/m3
- viscosity ([2]; 313.15 K, x2 = 0.8019): 1.099 ± 0.015 mPa·s
- mass density ([2]; 313.15 K, x2 = 0.9043): 823.6 ± 13 kg/m3
- viscosity ([2]; 313.15 K, x2 = 0.9043): 1.188 ± 0.016 mPa·s

Compound: O=Cc1ccccc1 [benzaldehyde]
- mass density ([1]; 288.15 K): 1056 ± 7.7 kg/m3
- viscosity ([1]; 288.15 K): 1.704 ± 0.026 mPa·s
- mass density ([1]; 293.15 K): 1052.8 ± 7.6 kg/m3
- viscosity ([1]; 293.15 K): 1.558 ± 0.024 mPa·s
- mass density ([1]; 298.15 K): 1047 ± 7.2 kg/m3
- viscosity ([1]; 298.15 K): 1.427 ± 0.022 mPa·s
- mass density ([1]; 303.15 K): 1043.2 ± 7.1 kg/m3
- viscosity ([1]; 303.15 K): 1.316 ± 0.021 mPa·s
- mass density ([1]; 308.15 K): 1039 ± 6.8 kg/m3
- viscosity ([1]; 308.15 K): 1.223 ± 0.019 mPa·s
- mass density ([1]; 313.15 K): 1034.4 ± 6.6 kg/m3
- viscosity ([1]; 313.15 K): 1.131 ± 0.018 mPa·s
